Results: the NIST ThermoML archive (doi:10.1016/j.tca.2008.05.004)
Numbers after ± are expanded uncertainties.

Details: 101.33 kPa, Crystal; for molar entropy: Small (less than 1 g) adiabatic calorimetry

O=P([O-])([O-])[O-].[La+3] [lanthanum orthophosphate]
Details | molar entropy [J/K/mol]
2 K | 0.00041
4 K | 0.00372
6 K | 0.01262
8 K | 0.0291 ± 0.031
10 K | 0.0561 ± 0.031
12 K | 0.09746 ± 0.032
14 K | 0.1576 ± 0.033
16 K | 0.2412 ± 0.035
18 K | 0.3527 ± 0.037
20 K | 0.4961 ± 0.039
25 K | 1.015 ± 0.045
30 K | 1.776 ± 0.16
35 K | 2.783 ± 0.17
40 K | 4.024 ± 0.18
45 K | 5.479 ± 0.19
50 K | 7.119 ± 0.2
60 K | 10.84 ± 0.23
70 K | 14.97 ± 0.26
80 K | 19.34 ± 0.3
90 K | 23.86 ± 0.44
100 K | 28.43 ± 0.47
110 K | 33.01 ± 0.5
120 K | 37.56 ± 0.53
130 K | 42.08 ± 0.55
140 K | 46.55 ± 0.58
150 K | 50.59 ± 0.6
160 K | 55.29 ± 0.63
170 K | 59.57 ± 0.66
180 K | 63.77 ± 0.68
190 K | 67.91 ± 0.71
200 K | 71.98 ± 0.73
210 K | 75.99 ± 0.76
220 K | 79.93 ± 0.78
230 K | 83.81 ± 0.8
240 K | 87.62 ± 0.83
250 K | 91.37 ± 0.85
260 K | 95.06 ± 0.87
270 K | 98.69 ± 0.89
280 K | 102.3 ± 0.9
290 K | 105.8 ± 0.9
300 K | 109.2 ± 1
320 K | 116 ± 1
340 K | 122.5 ± 1
360 K | 128.8 ± 1.1
373 K | 132.9 ± 1.1
400 K | 141 ± 1.1
450 K | 155.1 ± 1.2
500 K | 168.2 ± 1.3
550 K | 180.3 ± 1.4
600 K | 191.7 ± 1.5
650 K | 202.4 ± 1.5
700 K | 212.6 ± 1.6
750 K | 222.1 ± 1.6
800 K | 231.3 ± 1.7
850 K | 240 ± 1.7
900 K | 248.3 ± 1.8
950 K | 256.3 ± 1.8
1000 K | 263.9 ± 1.9
1050 K | 271.3 ± 1.9
1100 K | 278.5 ± 2
1150 K | 285.4 ± 2
1200 K | 292.1 ± 2.1
1250 K | 298.6 ± 2.1
1300 K | 305 ± 2.1
1350 K | 311.1 ± 2.2
1400 K | 317.1 ± 2.2
1450 K | 323 ± 2.2
1500 K | 328.7 ± 2.3
1550 K | 334.3 ± 2.3
1600 K | 339.8 ± 2.3

Details | mass density [kg/m3]
293 K, X-ray diffraction | 5076 ± 6
